Patent US20230278972A1, “SUBSTITUTED HALOALKYL SULFONANILIDE HERBICIDES” (FMC Corporation, priority 2020, published 2023)

How the values were obtained:
Assay type in all cases: in vivo
[1] = tested on: Oat, Wild (wild oat, Avena fatua); test: Test A1 postemergence, Oat, Wild; settings: for Plant response rating, Oat, Wild: Postemergence; for Oat, Wild plant response rating: postemergence
Outline: (§1)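 Plants grown in pots of loam/sand mix; preemergence = soil-directed spray on seeded pots, postemergence = spray at 1–2 leaves, height 2–10 cm; test chemicals formulated in non-phytotoxic solvent with surfactant.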

[2] = tested on: kochia (Bassia scoparia); test: Test A1 preemergence, kochia
Outline: (§2)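 Seeds were first planted into a blend of loam soil and sand and given a preemergence directed soil spray. In parallel, pots of the same soil were sown for postemergence application once plants reached 2 to 10 cm and the one- to two-leaf stage. Both used surfactant-containing non-phytotoxic solvent formulations.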

[3] = tested on: horseweed (Erigeron canadensis); test: Test A1 postemergence, horseweed; settings: for Plant response rating, Horseweed: Postemergence
Outline: as §1

[4] = tested on: kochia (Bassia scoparia); test: Test A1 postemergence, kochia; settings: for Plant response rating, Kochia: Postemergence; for Kochia plant response rating: postemergence
Outline: as §1

[5] = tested on: Ryegrass, Italian (Italian ryegrass, Lolium multiflorum); test: Test A1 preemergence, Ryegrass, Italian
Outline: as §2

[6] = tested on: Ryegrass, Italian (Italian ryegrass, Lolium multiflorum); test: Test A1 postemergence, Ryegrass, Italian; settings: for Plant response rating, Ryegrass, Italian: Postemergence; for Ryegrass, Italian plant response rating: postemergence
Outline: as §1

[7] = 31 g ai/ha, 0 to 100 scale (0 no effect, 100 complete control), 10 days
[8] = 31 g ai/ha, 0 to 100 scale (0 no effect, 100 complete control)
[9] = 125 g ai/ha, 0 to 100 scale, 0 no effect, 100 complete control

Row | Structure (SMILES) | Plant response rating, Oat, Wild [1, 7] | Plant response rating, Oat, Wild ([1]; 125 g ai/ha, 0 to 100 scale) | Plant response rating, Kochia [2, 8] | Plant response rating, Kochia [2, 9] | Plant response rating, Horseweed [3, 7] | Plant response rating, Horseweed ([3]; 125 g ai/ha, 0 to 100 scale) | Plant response rating, Kochia [4, 7] | Plant response rating, Kochia ([4]; 125 g ai/ha, 0 to 100 scale) | Plant response rating, Ryegrass, Italian [5, 8] | Plant response rating, Ryegrass, Italian [5, 9] | Plant response rating, Ryegrass, Italian [6, 7] | Plant response rating, Ryegrass, Italian ([6]; 125 g ai/ha, 0 to 100 scale) | Oat, Wild plant response rating [1, 8] | Horseweed plant response rating ([3]; 31 g ai/ha, postemergence, 0 to 100 scale (0 no effect, 100 complete control)) | Kochia plant response rating [4, 8] | Ryegrass, Italian plant response rating [6, 8]
1 | CCCCOC1CC(c2cc(NS(=O)(=O)C(F)(F)F)c(C)cc2C)=NO1 (stereo not drawn) [Compound 323] | 0 | 0 | 20 | 90 | 0 | 50 | 50 | 60 | 40 | 90 | 0 | 20 |  |  |  | 
2 | CCOC(=O)N(c1cc(C(=O)N2CCOCC2)c(C)cc1C)S(=O)(=O)C(F)(F)F [Compound 363] | 20 | 50 | 80 | 100 | 80 | 90 | 50 | 70 | 80 | 100 | 20 | 90 |  |  |  | 
3 | CCOC(=O)N(c1cc(C(=O)N2CCC(c3ccccc3)CC2)c(C)cc1C)S(=O)(=O)C(F)(F)F [Compound 365] | 0 | 0 | 0 | 0 | 10 | 20 | 10 | 40 | 0 | 30 | 0 | 10 |  |  |  | 
4 | CCC1CC(c2cc(N(COC(=O)C(C)(C)C)S(=O)(=O)C(F)(F)F)c(C)cc2C)=NO1 (stereo not drawn) [Compound 376] |  | 0 | 0 | 80 |  | 0 |  | 50 | 0 | 30 |  | 0 | 0 | 0 | 0 | 0
5 | CCC1ON=C(c2cc(N(COC(=O)C(C)(C)C)S(=O)(=O)C(F)(F)F)c(C)cc2C)C1CC (stereo not drawn) [Compound 344] | 20 | 30 | 0 | 30 |  |  | 20 | 60 | 20 | 40 | 30 | 40 |  |  |  | 
6 | Cc1c(NS(=O)(=O)C(F)(F)F)cc(C(=O)N2CC(C)OC(C)C2)c(C)c1C (stereo not drawn) [Compound 328] | 0 | 0 | 20 | 90 |  |  | 10 | 60 | 30 | 100 | 30 | 60 |  |  |  | 
7 | CCOC(=O)N(c1cc(C(=O)N2C[C@@H](C)O[C@H](C)C2)c(C)c(C)c1C)S(=O)(=O)C(F)(F)F (relative stereo) [Compound 374] |  | 10 | 0 | 0 |  |  |  | 10 | 0 | 90 |  | 50 | 0 |  | 0 | 0
8 | CCC1ON=C(c2cc(N(C(=O)OCC(C)C)S(=O)(=O)C(F)(F)F)c(C)cc2C)C1CC (stereo not drawn) [Compound 348] | 0 | 20 | 0 | 30 |  |  | 20 | 70 | 0 | 70 | 0 | 40 |  |  |  | 
9 | CCC1ON=C(c2cc(N(COC(=O)C(C)(C)C)S(=O)(=O)C(F)(F)F)c(C)cc2C)C1CC (stereo not drawn) [Compound 347] | 10 | 20 | 0 | 50 |  |  | 10 | 60 | 0 | 0 | 0 | 60 |  |  |  | 
10 | Cc1c(C(=O)N2C[C@@H](C)O[C@H](C)C2)cc(N(COC(=O)C(C)(C)C)S(=O)(=O)C(F)(F)F)c(C)c1C (relative stereo) [Compound 373] |  | 10 | 0 | 0 |  |  |  | 10 | 0 | 0 |  | 30 | 0 |  | 0 | 0
